Experimental data reported in ChEMBL document CHEMBL1158032, “Manaarenolides A-I, diterpenoids from the soft coral Sinularia manaarensis” (J Nat Prod, 2006).
In brackets after ≈: the same amount, converted by molar mass.

Tests used:
[1] = Cytotoxicity against human Hepa59T/VGH cells by MTT assay; format: functional; conditions: HEPA 59T/VGH, read-out: ED50 (the source's name)
HeLa = test: Cytotoxicity against human HeLa cells by MTT assay; format: functional; conditions: read-out: ED50 (the source's name)
KB = test: Cytotoxicity against human KB cells by MTT assay; format: functional; conditions: read-out: ED50 (the source's name)
[2] = Cytotoxicity against human Med cells by MTT assay; format: cell-based; conditions: read-out: ED50 (the source's name)

Structure (SMILES)	EC50 [1] [µg/mL]	EC50 (HeLa) [µg/mL]	EC50 (KB) [µg/mL]	CC50 [2] [µg/mL]
C=C1C(=O)O[C@@H]2C[C@H]1C/C=C(/C)[C@@H](O)CC/C(C)=C/CC[C@]2(C)O [MANAARENOLIDE H]	7.4 (≈ 22.1 µM)	9.3 (≈ 27.8 µM)	7.6 (≈ 22.7 µM)	5.8 (≈ 17.3 µM)
C=C1C(=O)O[C@@H]2C[C@H]1C/C=C(\C)[C@@H](O)CC/C(C)=C/CC[C@]2(C)O [MANAARENOLIDE G]	7.2 (≈ 21.5 µM)	10.9 (≈ 32.6 µM)	8.7 (≈ 26 µM)	13.4 (≈ 40.1 µM)
